Results from article PMC2999418, “Biological Activity and Binding Site Characteristics of the PA1b Entomotoxin on Insects from Different Orders” (Journal of Insect Science, 2007).
Where two headings read alike, the source gives them in different places.

Key:
[1] = tested on: D. melanogaster protein extracts; assay: PA1b degradation assay with total insect protein extract; assay type: in vitro ADME, Drosophila melanogaster; details: 200 µg D. melanogaster (L3) total protein extract, 10 µg PA1b, pH 3 to 9, 30°C, one night incubation; C18 HPLC; data not shown
Description: (§1) The isolation of membrane proteins for binding studies was performed as described by Gressent et al. ([2003]). For PA1b degradation tests, insect extracts were prepared as follows, 1 g of insects were ground with a mortar and pestle in liquid nitrogen. The resulting powder was resuspended in 2 ml of extraction buffer (20 mM Tris-HCl pH 8; 0.25 M sucrose; 2 mM MgCl2). The slurry was centrifuged for 2 min at 1000 g, and the supernatant was stored at -2O°C until required. All the operations were performed at 4°C.
(§2) PA1b degradation assays were performed using 10 µg of peptide (PA1b isoform mixture) in a final volume of 100 µl buffer. […]
(§3) For all assays, after a one night incubation, 150 µl of methanol were added to the mixture and incubated for 60 min at 4°C. […] PA1b peptide isoforms were detected by their absorbance at 210 nm, quantified by the measurement of the peak area and with reference to known quantities of pure peptide isoform used as standards.

Sitophilus oryzae [2] = details: three natural S. oryzae strains able to feed on pea seeds; ref Grenier et al. 1997; cited from earlier work
Source text: S. oryzae strains resistant to PA1b exist naturally.

[3] = biological target: PA1b binding protein on membrane extracts; assay: 125I-PA1b binding (competition) on insect membrane extracts; parameters: species or system Bruchus pisorum; details: B. pisorum membrane extracts; competition with purified 3741 isoform
Description: as §1
The peptidic toxin PA1b-3471 isoform was labelled with I^125 to a specific radioactivity of about 900 Ci.mmor^-1, and then used for binding studies with membrane extracts, according to Gressent et al. ([2003]).
PA1b binding activity was present in all insect species, except for the resistant weevil strains and the pea specific pest Bruchus pisorum, regardless of the sensitivity or insensitivity of these insects to PA1b toxicity, as evaluated from our insect bioassays. […] The relative abundance of the binding sites was also slightly different in this group of species, varying from 10 pmol/mg of protein for T. pretiosum to a maximum of 79 pmol/mg of protein for M. persicae.

Sitophilus oryzae [4] = assay: Toxicity assay on cereal weevil adults, toxin in food, survival analysis; assay type: in vivo; details: dose-response, PA1b isoform mixture in food, confidence interval in brackets
Description: (§4) Cereal weevils (Sitophilus oryzae, S. zeamais and S. granarius, Coleoptera) were reared for more than 10 years in our laboratory on wheat seeds at […] 70% RH. Resistant strains were reared on pea seeds. Tests and survival analysis were performed on adults, as fully described in Louis et al ([2004]).
(§5) All toxicity assays were carried out using a mixture of PA1b isoforms (98% purity by HPLC). All tests were performed on at least 30 insects for assays and for control test (without toxin), except for the three aphid species (50 insects) and for Trichogramma (more than 300 eggs by assays). When adults were used, the insects were synchronized at the imaginal molt. The statistical analyses were performed using the JMP software (SAS, Grégy-sur-Yerres FRA).

Sitophilus zeamais = assay: as above; assay type: in vivo; details: S. zeamais LS strain, day 7, confidence interval in brackets
Description: as §4, §5

Sitophilus granarius = assay: as above; assay type: in vivo; details: S. granarius Brayard strain
Description: as §4, §5

[5] = tested on: A. gossypii protein extracts; assay: PA1b degradation assay with total insect protein extract; assay type: in vitro ADME, Aphis gossypii; details: 200 µg A. gossypii (L4) proteins, 10 µg PA1b in 100 µl, 20 mM buffers pH 3 to 9, 30°C, one night incubation; C18 HPLC, UV 210 nm; mean of triplicates
Description: as §1, §2, §3
Figure 3. […] Degradation of PA1b was monitored after incubation by reverse-phase HPLC. […]

[6] = biological target: PA1b binding protein on membrane extracts; details: ref Gressent et al (2003), cited from earlier work
Source text: Table 1. Affinity (Kd) and relative abundance (Bmax) of the PA1b binding protein on membrane extracts from different insect species and strains. | column: Kd (nM); Bmax (pmol/mg of protein)

Harmonia axyridis = assay: Ladybeetle development and survival on artificial diet supplemented with toxin; assay type: in vivo; details: 250 µg/g of food
Description: The ladybeetle Harmonia axyridis (Coleoptera) was grown on a pork liver-based artificial diet (Specty et al., unpublished results), and tests were performed using a diet supplemented with the toxin. The development was monitored from L3 up to the pupal stage.
as §5
Figure 1. Effects of PA1b on the lady beetle H. axyridis. Tests were done with artificial diet supplemented with the toxin (250 µg/g), and the development of the insects was monitored daily. First bar, control insects; second bar, tested insects. P, Pupae; pP, Pre-pupae; L4,4th instar larvae; L3, 3rd instar larvae.

Sequence: ASCNGVCSPFEMPPCGTSACRCIPVGLVIGYCR NPSG (bicyclic or more) [PA1b, plant peptide of 37 amino acids purified from pea (Pisum sativum) seeds; entomotoxic cystine-knot peptide with three disulfide bonds]
- recovered PA1b after incubation with insect proteins versus heat-denatured control [1]: without any difference between control and test assays
- resistance of pea-feeding S. oryzae strains to the purified toxin (Sitophilus oryzae [2]): fully resistant
- Kd / binding [3]: no binding detectable
- LD50 at day 7 (Sitophilus oryzae [4]; S. oryzae strain Bouriz, adults): 501 [281–984] µg/g
- LD50 at day 7 (Sitophilus oryzae [4]; S. oryzae strain Bénin, adults): 446 [251–1584] µg/g
- LD50 at day 7 (Sitophilus oryzae [4]; S. oryzae strain WAA42, adults): 489 [290–1318] µg/g
- LC50 (Sitophilus zeamais): 234 [125–630] µg/g
- mortality (Sitophilus granarius; highest tested dose 1000 µg/g): 27%
- LD50 estimated by extrapolation (Sitophilus granarius; extrapolated, without confidence interval): ca. 3500 µg/g
- recovered PA1b after incubation with insect proteins versus heat-denatured control [5]: very close to the control test
- Kd ([6]; S. granarius Brayard membrane extracts): 6.3 nM
- Kd ([6]; S. zeamais Ls membrane extracts): 9 nM
- share of survivors that reached the pupal stage (Harmonia axyridis; by day 12): half
- insects that reached the L4 stage (Harmonia axyridis; started on L3 larvae, after three days (all control insects reached L4)): 30%
- survival (Harmonia axyridis; started on L3 larvae, by day 12 (control 75%)): 15%
